Columns and labels:
[1] = Dissolution test of pelubiprofen tablets, Paddle Method of Korean Pharmacopoeia; assay type: physicochemical
From the text: In accordance with the present invention, mean particle size of pelubiprofen preferably ranges from 1 to 30 μm. For example, pelubiprofen particles are difficult to prepare when less than 1 μm in mean particle size, although their dissolution rate increases thanks to the increased surface area thereof. On the other hand, pelubiprofen particles exceeding 30 μm in size have a decreased dissolution rate.
Pelubiprofen tablets differing in the mean particle size of pelubiprofen and the kinds and content of additives were measured for dissolution rate as follows.
A dissolution test was performed on the pelubiprofen tablets prepared in Examples 1 to 20 and Comparative Examples 1 to 18.
The dissolution test was performed according to the procedure of Paddle Method described in Korean Pharmacopoeia. In this regard, one tablet was tested in 900 mL of a dissolution medium (pH 1.2) at 37±0.5° C., with a maintenance of paddle rotation speed at 50 rpm. After a 45-min test, the dissolution medium was taken and filtered through a 0.45 μm filter, followed by the UV analysis of the filtrate.

[2] = Related compounds in pelubiprofen combined with single additives, stored two weeks at 60° C.; assay type: physicochemical; settings: pelubiprofen 20 mg plus additive
Procedure: Increased amounts of related compounds were measured after oral pharmaceutical formulations with different mean particle sizes (27.4 μm, 45.6 μm) of pelubiprofen in combination with different amounts of various additives were stored for two weeks under the severe condition of 60° C.

## CC(C(=O)O)c1ccc(/C=C2\CCCCC2=O)cc1 (centres unmarked) [pelubiprofen, 2-[4-(2-oxocyclohexylidenemethyl)phenyl]propionic acid]
[1]; mean particle size of pelubiprofen 9.3 μm
  dissolution rate: 85.8%
[1]; mean particle size of pelubiprofen 19.1 μm
  dissolution rate: 75.3%
[1]; mean particle size of pelubiprofen 27.4 μm
  dissolution rate: 70.4%
[1]; mean particle size of pelubiprofen 45.6 μm
  dissolution rate: 41.4%
[2]; MPS of pelubiprofen 27.4 μm
  Increase of Related Cpd.: 9.5%
  Total Related Cpd.: 0.461%
[2]; MPS of pelubiprofen 45.6 μm
  Increase of Related Cpd.: 2.6%
  Total Related Cpd.: 0.432%

— US9006294B2, “Oral pharmaceutical formulation of pelubiprofen with improved dissolution rate and stability” (Daewon Pharm., Co., Ltd., priority 2008, dated 2015)
